Laboratory results reported in patent US20180193412A1, “Method of In Vivo Treatment” (Hexima Limited, priority 2015, published 2018).

How the values were obtained:
T. rubrum = assay: Inhibition of growth of Trichophyton rubrum by plant defensins (microtitre A595 antifungal assay); format: cell-based; settings: ½ strength PDB, 30° C.
Protocol: (§1) The inhibitory effects of the plant defensins on the growth of Trichophyton rubrum, T. interdigitale, Microsporum fulvum and C. albicans (all obtained from the National Mycology Reference Centre, South Australia Pathology at the Women's and Children's Hospital, Adelaide, Australia) are measured essentially as described by Broekaert et al. (1990) FEMS Microbiol Lett 69:55-59.
(§2) Spores of T. rubrum, T. interdigitale and M. fulvum are isolated from sporulating fungus growing on ½ strength Sabouraud dextrose agar. Spores were removed from the plates by the addition of ½ strength potato dextrose broth (PDB). C. albicans cells are grown in Yeast Peptone Broth (YPD) for 16 h. Spore and cell concentrations are measured using a hemocytometer.
(§3) Antifungal assays are conducted in 96 well microtitre plates essentially as herein described. Wells are loaded with 20 μL of filter sterilized (0.22 Ξ m syringe filter, Millipore) defensin (10× stock for each final concentration) or water and 80 μL of 5×10^4 spores/mL (T. rubrum, T. interdigitale, M. fulvum) or 5,000 cells/mL (C. albicans) in ½ strength PDB. The plates are incubated at 30° C. Fungal growth is assayed by measuring optical density at 595 nm (A595) using a microtitre plate reader (SpectraMax Pro M2; Molecular Devices. Growth is allowed to proceed until the optical density (OD) of the fungus in the absence of any test defensin reached an OD of 0.2. Each test is performed in duplicate.

T. interdigitale = assay: Inhibition of growth of T. interdigitale by plant defensins (microtitre A595 antifungal assay); format: cell-based, Trichophyton interdigitale; settings: ½ strength PDB, 30° C.
Protocol: as §1, §2, §3

C. albicans = assay: Inhibition of growth of Candida albicans, Example 2 antifungal assay; format: cell-based; settings: Table 4; ½ strength PDB, 30° C., A595
Protocol: (§4) The inhibitory effects of the plant defensins on the growth of Candida albicans, Aspergillus fumigatus (obtained from the National Mycology Reference Centre, South Australia Pathology at the Women's and Children's Hospital, Adelaide, Australia), C. glabrata, C. tropicalis, A. flavus, A. niger, A. fumigants, Cryptococcus neoformans and C. gattii (obtained from Dee Carter, University of Sydney, New South Wales, Australia) are measured essentially as described by Broekaert et al. (1990) FEMS Microbiol Lett 69:55-59.
(§5) Spores of A. flavus. A. niger and A. fumigatus are isolated from sporulating fungus growing on ½ strength Sabouraud dextrose agar. Spores were removed from the plates by the addition of ½ strength potato dextrose broth (PDB). C. albicans, C. glabrata, C. tropicalis, C. neoformans and C. gattii cells are grown in Yeast Peptone Broth (YPD) for 16 h. Spore and cell concentrations are measured using a hemocytometer.
as §3, with “μm” for “Ξ m”, “(A. flavus, A. niger, A. fumigatus),” for “(T. rubrum, T. interdigitale, M. fulvum) or”, “albicans, C. glabrata, C. tropicalis) or 1×10^6 cells/mL (C. neoformans, C. gattii)” for “albicans)”

M. fulvum = assay: Inhibition of growth of Microsporum fulvum by plant defensins (microtitre A595 antifungal assay); format: cell-based; settings: ½ strength PDB, 30° C., A595
Protocol: as §1, §2, §3

[1] = test system: Trichophyton rubrum, T. interdigitale, Microsporum fulvum and C. albicans; assay: Inhibition assays of Example 1, summary across the range of fungal pathogens; format: cell-based; settings: summary of Table 3, at the concentrations tested
Protocol: as §1, §2, §3

C. tropicalis = assay: Inhibition of growth of C. tropicalis, Example 2 antifungal assay; format: cell-based; settings: ½ strength PDB, 30° C., A595
Protocol: as §4, §5
as §3, with “μm” for “Ξ m”, “(A. flavus, A. niger, A. fumigatus),” for “(T. rubrum, T. interdigitale, M. fulvum) or”, “albicans, C. glabrata, C. tropicalis) or 1×10^6 cells/mL (C. neoformans, C. gattii)” for “albicans)”

A. fumigatus = assay: Inhibition of growth of Aspergillus fumigatus, Example 2 antifungal assay; format: cell-based; settings: ½ strength PDB, 30° C., A595
Protocol: as §4, §5
as §3, with “μm” for “Ξ m”, “(A. flavus, A. niger, A. fumigatus),” for “(T. rubrum, T. interdigitale, M. fulvum) or”, “albicans, C. glabrata, C. tropicalis) or 1×10^6 cells/mL (C. neoformans, C. gattii)” for “albicans)”

C. glabrata = assay: Inhibition of growth of C. glabrata, Example 2 antifungal assay; format: cell-based; settings: ½ strength PDB, 30° C., A595
Protocol: as §4, §5
as §3, with “μm” for “Ξ m”, “(A. flavus, A. niger, A. fumigatus),” for “(T. rubrum, T. interdigitale, M. fulvum) or”, “albicans, C. glabrata, C. tropicalis) or 1×10^6 cells/mL (C. neoformans, C. gattii)” for “albicans)”

A. flavus = assay: Inhibition of growth of A. flavus, Example 2 antifungal assay; format: cell-based; settings: ½ strength PDB, 30° C., A595
Protocol: as §4, §5
as §3, with “μm” for “Ξ m”, “(A. flavus, A. niger, A. fumigatus),” for “(T. rubrum, T. interdigitale, M. fulvum) or”, “albicans, C. glabrata, C. tropicalis) or 1×10^6 cells/mL (C. neoformans, C. gattii)” for “albicans)”

T. albicans = assay: Inhibition of growth of C. albicans by plant defensins, Example 1 (microtitre A595 antifungal assay); format: cell-based; settings: Table 3; ½ strength PDB, 30° C., A595
Protocol: as §1, §2, §3

C. gattii = assay: Inhibition of growth of C. gattii, Example 2 antifungal assay; format: cell-based; settings: ½ strength PDB, 30° C., A595
Protocol: as §4, §5
as §3, with “μm” for “Ξ m”, “(A. flavus, A. niger, A. fumigatus),” for “(T. rubrum, T. interdigitale, M. fulvum) or”, “albicans, C. glabrata, C. tropicalis) or 1×10^6 cells/mL (C. neoformans, C. gattii)” for “albicans)”

C. neoformans = assay: Inhibition of growth of Cryptococcus neoformans, Example 2 antifungal assay; format: cell-based; settings: ½ strength PDB, 30° C., A595
Protocol: as §4, §5
as §3, with “μm” for “Ξ m”, “(A. flavus, A. niger, A. fumigatus),” for “(T. rubrum, T. interdigitale, M. fulvum) or”, “albicans, C. glabrata, C. tropicalis) or 1×10^6 cells/mL (C. neoformans, C. gattii)” for “albicans)”

A. niger = assay: Inhibition of growth of A. niger, Example 2 antifungal assay; format: cell-based; settings: ½ strength PDB, 30° C., A595
Protocol: as §4, §5
as §3, with “μm” for “Ξ m”, “(A. flavus, A. niger, A. fumigatus),” for “(T. rubrum, T. interdigitale, M. fulvum) or”, “albicans, C. glabrata, C. tropicalis) or 1×10^6 cells/mL (C. neoformans, C. gattii)” for “albicans)”

B. subtilis = assay: Inhibition of the growth of Bacillus subtilis (OD595, 18 hours); format: cell-based; settings: for IC50: Mueller-Hinton Broth, 37° C., 18 hours, up to 20 μM, read-out: IC50 against B. subtilis; for Inhibition of growth of B. subtilis: at the concentrations tested (0.3125-20 μM)
Protocol: (§6) A single E. coli or B. subtilis colony was used to inoculate 5 ml of Luria-Bertani media and grown overnight at 37° C. The following day, the optical density of the culture was measured and the bacteria diluted to an optical density at 600 nm (OD600) of 0.01 in Mueller-Hinton Broth. Diluted E. coli or B. subtilis were added to 96-well plates with defensins at concentrations of 20 μM, 10 μM, 5 μM, 2.5 μM, 1.25 μM, 0.625 μM or 0.3125 μM. Plates were read at OD595 to obtain time zero data points. Plates were incubated at 37° C. for 18 hours before reading again at OD595 to assess the amount of bacterial growth.

E. coli = format: cell-based, Escherichia coli; settings: for IC50: Mueller-Hinton Broth, 37° C., 18 hours, up to 20 μM, read-out: IC50 against E. coli; for Inhibition of growth of E. coli: at the concentrations tested (0.3125-20 μM)
Protocol: as §6

Substance | IC50 against T. rubrum (T. rubrum) | IC50 against T. interdigitale (T. interdigitale) | IC50 against C. albicans (C. albicans) | IC50 against M. fulvum (M. fulvum) | Activity across the range of fungal pathogens [1] | IC50 against C. tropicalis (C. tropicalis) | IC50 against A. fumigatus (A. fumigatus) | IC50 against C. glabrata (C. glabrata) | IC50 against A. flavus (A. flavus) | IC50 against T. albicans (T. albicans) | IC50 against C. gattii (C. gattii) | IC50 against C. neoformans (C. neoformans) | IC50 against A. niger (A. niger) | IC50 (B. subtilis) | IC50 (E. coli) | Inhibition of growth of B. subtilis (B. subtilis) | Inhibition of growth of E. coli (E. coli)
HXL015: Class I plant defensin from Oryza sativa (RHCLSQSHRFKGMCVSSNNCANVCRTESFPDGECKSHGLERKCFCKKVC; HXL015 Oryza sativa) | 10 µg/mL | 3.5 µg/mL | 5 µg/mL | 12.5 µg/mL | intermediate activity | – | – | – | – | – | – | – | – | – | – | – | –
HXL035: Class I plant defensin from Picramnia pentandra (KVCTKPSKFFKGLCGFDRDCTVACKKEGLASGFCQNKGFFNVVCVCRKPC; HXL035 Picramnia pentandra) | 2 µg/mL | 1 µg/mL | 18 µg/mL | 2 µg/mL | most effective | 6 µg/mL | 7.5 µg/mL | 10 µg/mL | 25 µg/mL | 18 µg/mL | 20 µg/mL | 5 µg/mL | 6 µg/mL | – | – | – | –
HXL004: Class I plant defensin from Nicotiana benthamiana (RTCESQSHRFKGLCFSRSNCASVCHTEGFNGGHCRGFRRRCFCTRHC; HXL004 Nicotiana benthamiana) | 27.5 µg/mL | 19 µg/mL | 20 µg/mL | 12 µg/mL | intermediate activity | 5 µg/mL | 20 µg/mL | 20 µg/mL | >100 µg/mL | 20 µg/mL | 20 µg/mL | 7 µg/mL | 45 µg/mL | 2.6 µM | 2.5 µM | – | –
NaD1: Solanaceous Class II plant defensin from Nicotiana alata (RECKTESNTFPGICITKPPCRKACISEKFTDGHCSKILRRCLCTKPC; NaD1 Nicotiana alata) | 8 µg/mL | 10 µg/mL | 20 µg/mL | 5.3 µg/mL | – | 2.5 µg/mL | 8 µg/mL | 14 µg/mL | 20 µg/mL | 20 µg/mL | 5 µg/mL | 3 µg/mL | 16 µg/mL | – | > 20 µM | did not inhibit the growth | did not inhibit the growth
HXL012: Class I plant defensin from Amaranthus retroflexus (RMCKAPSKLFRGMCGIRDSNCDSVCRAEGMAAGDCHGLRRRCICSRPC; HXL012 Amaranthus retroflexus) | 2 µg/mL | 2 µg/mL | 42 µg/mL | 18 µg/mL | intermediate activity | 10 µg/mL | 15 µg/mL | >100 µg/mL | 45 µg/mL | 42 µg/mL | 38 µg/mL | 8 µg/mL | 12.5 µg/mL | 20 µM | > 20 µM | – | –
HXL005: Class I plant defensin from Taraxcum kok-saghyz (KMCQTTSHAFSCVNDSGCSGSCEKQGFASGKCDGVRRRCTCYKKC; HXL005 Taraxcum kok-saghyz) | 3 µg/mL | 3.5 µg/mL | 22 µg/mL | 5 µg/mL | most effective | 12 µg/mL | 11 µg/mL | 11 µg/mL | 25 µg/mL | 22 µg/mL | 14 µg/mL | 5 µg/mL | 7.5 µg/mL | > 20 µM | > 20 µM | did not inhibit the growth | did not inhibit the growth
